“And” between values parts separate entries of the source, which are not always exact repeats. Equal entries are not always repeated. Toxic doses and inconclusive results are not listed.
System: P388 leukemia ip, CD2F1 mice, survival T/C
Experiment: NCI In Vivo Anticancer Drug Screen. Data for tumor model P388 Leukemia (intraperitoneal) in CD2F1 (CDF1) mice
Settings: endpoint: median survival time, higher = longer survival
How it was run: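 Mice carrying the transplanted tumor received test compound or vehicle. Survival was recorded in each group, and the value is the treated-group measurement divided by that of the vehicle-treated control group.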

[1] = dose: 12.5 mg/kg/injection, schedule: Q01DX009 (ip), vehicle: distilled water + Tween-80
[2] = dose: 25.0 mg/kg/injection, schedule: Q01DX009 (ip), vehicle: distilled water + Tween-80
[3] = dose: 50.0 mg/kg/injection, schedule: Q01DX009 (ip), vehicle: distilled water + Tween-80
[4] = dose: 100.0 mg/kg/injection, schedule: Q01DX009 (ip), vehicle: distilled water + Tween-80
[5] = dose: 200.0 mg/kg/injection, schedule: Q01DX009 (ip), vehicle: distilled water + Tween-80

`O=C(Cc1nc2cc(Cl)c(Cl)cc2nc1CC(=O)c1ccncc1)c1ccncc1` was tested, and the T/C (dose: 60.0 mg/kg/injection, schedule: Q01DX005 (ip), vehicle: saline with Tween-80) was 93 % of control, the T/C (dose: 120.0 mg/kg/injection, schedule: Q01DX005 (ip), vehicle: saline with Tween-80) was 90 % of control and the T/C (dose: 240.0 mg/kg/injection, schedule: Q01DX005 (ip), vehicle: saline with Tween-80) was 90 % of control.

With `COc1cccc2c1C(=O)c1c(O)c3c(c(O)c1C2=O)C[C@@](O)(CO)C[C@@H]3OC1CC(N)C(O)C(C)O1` (some centres not stated) the T/C (dose: 0.56 mg/kg/injection, schedule: Q04DX003 (ip), vehicle: water) was 109 % of control, the T/C (dose: 0.78 mg/kg/injection, schedule: Q01DX009 (ip), vehicle: water) was 167 % of control and the T/C (dose: 1.13 mg/kg/injection, schedule: Q04DX003 (ip), vehicle: water) was 104 % of control. For the same compound, the T/C (dose: 1.56 mg/kg/injection, schedule: Q01DX009 (ip), vehicle: water) was 167 % of control and 183 % of control, the T/C (dose: 2.25 mg/kg/injection, schedule: Q04DX003 (ip), vehicle: water) was 109 % of control and 118 % of control and the T/C (dose: 4.5 mg/kg/injection, schedule: Q04DX003 (ip), vehicle: water) was 115 % of control and 123 % of control. For the same compound, the T/C (dose: 6.25 mg/kg/injection, schedule: Q01DX009 (ip), vehicle: water) was 88 % of control, the T/C (dose: 9.0 mg/kg/injection, schedule: Q04DX003 (ip), vehicle: water) was 121 % of control and the T/C (dose: 18.0 mg/kg/injection, schedule: Q04DX003 (ip), vehicle: water) was 119 % of control and 123 % of control. The T/C (dose: 36.0 mg/kg/injection, schedule: Q04DX003 (ip), vehicle: water) was 97 % of control.

With `COc1cc2ccc(CC(N)=O)cc2cc1OC` the T/C (dose: 100.0 mg/kg/injection, schedule: Q01DX009 (ip), vehicle: saline with Tween-80) was 118 % of control and the T/C (dose: 200.0 mg/kg/injection, schedule: Q01DX009 (ip), vehicle: saline with Tween-80) was 109 % of control.

In the case of `c1ccc2nc(C[n+]3cccc4ccccc43)ccc2c1`, the T/C (dose: 3.12 mg/kg/injection, schedule: Q01DX005 (ip), vehicle: saline) was 105 % of control, the T/C (dose: 6.25 mg/kg/injection, schedule: Q01DX005 (ip), vehicle: saline) was 106 % of control and the T/C (dose: 12.5 mg/kg/injection, schedule: Q01DX005 (ip), vehicle: saline) was 109 % of control.

In the case of `CCOC(=O)CC1Cc2ccc3ccc(OC)cc3c2C1=O` (configuration not stated), the T/C [1] was 102 % of control, the T/C [2] was 100 % of control and the T/C [3] was 95 % of control. For the same compound, the T/C [4] was 97 % of control and the T/C [5] was 93 % of control.

With `O=[N+]([O-])c1ccc(/C=N/Nc2nnc(-c3ccccc3)c(-c3ccccc3)n2)o1` the T/C (dose: 12.5 mg/kg/injection, schedule: Q01DX005 (ip), vehicle: saline with Tween-80) was 106 % of control, the T/C (dose: 25.0 mg/kg/injection, schedule: Q01DX005 (ip), vehicle: saline with Tween-80) was 103 % of control and the T/C (dose: 50.0 mg/kg/injection, schedule: Q01DX005 (ip), vehicle: saline with Tween-80) was 93 % of control and 96 % of control. For the same compound, the T/C (dose: 200.0 mg/kg/injection, schedule: Q01DX005 (ip), vehicle: saline with Tween-80) was 88 % of control.

With `C=C(C)CSc1ncnc2nc[nH]c12` the T/C (dose: 100.0 mg/kg/injection, schedule: Q04DX003 (ip), vehicle: saline with Tween-80) was 104 % of control, the T/C (dose: 200.0 mg/kg/injection, schedule: Q04DX003 (ip), vehicle: saline with Tween-80) was 100 % of control and the T/C (dose: 400.0 mg/kg/injection, schedule: Q04DX003 (ip), vehicle: saline with Tween-80) was 100 % of control.

For `COC(=O)c1nnn(-c2ccc(Cl)cc2C)c1C(=O)c1ccc(OC)cc1`, the T/C (dose: 60.0 mg/kg/injection, schedule: Q01DX005 (ip), vehicle: Klucel + Tween-80) was 102 % of control, the T/C (dose: 120.0 mg/kg/injection, schedule: Q01DX005 (ip), vehicle: Klucel + Tween-80) was 108 % of control and the T/C (dose: 240.0 mg/kg/injection, schedule: Q01DX005 (ip), vehicle: Klucel + Tween-80) was 93 % of control.

With `CC1(C)COC(c2ccc(Br)cc2)=N1` the T/C (dose: 25.0 mg/kg/injection, schedule: Q01DX009 (ip), vehicle: other) was 101 % of control, the T/C (dose: 50.0 mg/kg/injection, schedule: Q01DX009 (ip), vehicle: other) was 97 % of control and the T/C (dose: 100.0 mg/kg/injection, schedule: Q01DX009 (ip), vehicle: other) was 102 % of control. For the same compound, the T/C (dose: 200.0 mg/kg/injection, schedule: Q01DX009 (ip), vehicle: other) was 104 % of control.

In the case of `Cc1ccc(CC(=O)O)c2c1C(=O)CC2`, the T/C [1] was 92 % of control, the T/C [2] was 90 % of control and the T/C [3] was 90 % of control. The T/C [4] was 90 % of control and the T/C [5] was 90 % of control.

From PubChem BioAssay AID330 (DTP/NCI, 2004)
